Data: ChEMBL document CHEMBL1765070, “Structure-based design of potent and selective 3-phosphoinositide-dependent kinase-1 (PDK1) inhibitors” (J Med Chem, 2011)

Assays:
[1] = target: T1, 3-phosphoinositide-dependent protein kinase 1 (Homo sapiens, UniProt O15530); test: Inhibition of PDK1-mediated AKT phosphorylation at Thr308 residue in human PC3 cells by ELISA; format: cell-based, PC-3
T1 sequence (O15530 whole entry): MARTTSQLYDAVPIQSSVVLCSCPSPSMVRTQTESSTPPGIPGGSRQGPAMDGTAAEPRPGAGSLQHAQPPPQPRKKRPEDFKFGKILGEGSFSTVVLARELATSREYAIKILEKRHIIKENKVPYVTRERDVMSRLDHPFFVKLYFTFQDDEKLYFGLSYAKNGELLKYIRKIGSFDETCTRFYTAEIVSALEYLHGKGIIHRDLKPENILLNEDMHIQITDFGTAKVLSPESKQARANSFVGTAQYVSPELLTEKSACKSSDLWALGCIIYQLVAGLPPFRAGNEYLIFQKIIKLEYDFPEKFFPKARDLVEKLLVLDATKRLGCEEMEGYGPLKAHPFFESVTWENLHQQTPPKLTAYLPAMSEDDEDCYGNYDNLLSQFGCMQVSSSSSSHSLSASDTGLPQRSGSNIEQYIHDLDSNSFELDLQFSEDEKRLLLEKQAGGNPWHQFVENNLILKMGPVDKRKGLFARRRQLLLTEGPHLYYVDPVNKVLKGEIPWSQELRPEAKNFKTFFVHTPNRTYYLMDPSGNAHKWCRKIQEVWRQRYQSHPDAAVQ

Aurora kinase B = Aurora kinase B (Homo sapiens, UniProt Q96GD4); test: Inhibition of aurora B
Aurora kinase A = target: T2, Aurora kinase A (Homo sapiens, UniProt O14965); test: Inhibition of aurora A
T2 sequence (O14965 whole entry): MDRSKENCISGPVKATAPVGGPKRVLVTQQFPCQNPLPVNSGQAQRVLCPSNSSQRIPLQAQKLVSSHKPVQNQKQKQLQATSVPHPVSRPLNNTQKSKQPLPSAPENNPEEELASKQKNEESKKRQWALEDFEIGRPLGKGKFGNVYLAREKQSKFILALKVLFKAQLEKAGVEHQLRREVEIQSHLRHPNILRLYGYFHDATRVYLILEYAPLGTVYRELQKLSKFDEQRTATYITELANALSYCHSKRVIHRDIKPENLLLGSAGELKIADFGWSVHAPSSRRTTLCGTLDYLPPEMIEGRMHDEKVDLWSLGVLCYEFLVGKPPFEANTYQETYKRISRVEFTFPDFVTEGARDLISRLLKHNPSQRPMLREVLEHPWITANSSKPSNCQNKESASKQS

TGF-beta receptor type-1 = target: T3, TGF-beta receptor type-1 (Homo sapiens, UniProt P36897); test: Inhibition of ALK5; details: read-out: pIC50 (converted)
T3 sequence (P36897 whole entry): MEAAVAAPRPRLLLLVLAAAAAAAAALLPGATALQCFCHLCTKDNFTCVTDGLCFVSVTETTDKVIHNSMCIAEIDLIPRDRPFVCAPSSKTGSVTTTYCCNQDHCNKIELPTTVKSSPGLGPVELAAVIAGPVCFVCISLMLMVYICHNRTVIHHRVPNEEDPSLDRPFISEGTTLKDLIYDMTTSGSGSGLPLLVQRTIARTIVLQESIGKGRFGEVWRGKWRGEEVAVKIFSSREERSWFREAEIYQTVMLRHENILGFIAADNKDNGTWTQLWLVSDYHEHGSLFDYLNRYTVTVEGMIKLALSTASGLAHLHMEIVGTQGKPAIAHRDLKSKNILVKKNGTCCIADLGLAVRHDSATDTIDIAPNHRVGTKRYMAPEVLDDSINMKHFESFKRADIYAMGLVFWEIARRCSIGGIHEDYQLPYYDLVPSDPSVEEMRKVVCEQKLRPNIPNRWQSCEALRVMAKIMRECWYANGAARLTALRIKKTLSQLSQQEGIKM

[2] = target: Rho-associated protein kinase 1 (Homo sapiens, UniProt Q13464); test: Inhibition of ROCK1
[3] = target: T1, 3-phosphoinositide-dependent protein kinase 1; test: Inhibition of PDK1-mediated RSK phosphorylation at Ser221 residue in human PC3 cells by ELISA; format: cell-based, PC-3
[4] = target: T1, 3-phosphoinositide-dependent protein kinase 1; test: Inhibition of PDK1
[5] = Antiproliferative activity against human OCI-AML3 cells; format: functional, cell-based; details: OCI-AML-3
K562 = test: Antiproliferative activity against human K562 cells; format: functional, cell-based
HEL = test: Antiproliferative activity against human HEL 92.1.7 cells; format: functional, cell-based
[6] = Antiproliferative activity against human F-36P cells; format: functional, cell-based
OCI-AML2 = test: Antiproliferative activity against human OCI-AML2 cells; format: functional, cell-based

Rho-associated protein kinase 1, sequence (Q13464 whole entry): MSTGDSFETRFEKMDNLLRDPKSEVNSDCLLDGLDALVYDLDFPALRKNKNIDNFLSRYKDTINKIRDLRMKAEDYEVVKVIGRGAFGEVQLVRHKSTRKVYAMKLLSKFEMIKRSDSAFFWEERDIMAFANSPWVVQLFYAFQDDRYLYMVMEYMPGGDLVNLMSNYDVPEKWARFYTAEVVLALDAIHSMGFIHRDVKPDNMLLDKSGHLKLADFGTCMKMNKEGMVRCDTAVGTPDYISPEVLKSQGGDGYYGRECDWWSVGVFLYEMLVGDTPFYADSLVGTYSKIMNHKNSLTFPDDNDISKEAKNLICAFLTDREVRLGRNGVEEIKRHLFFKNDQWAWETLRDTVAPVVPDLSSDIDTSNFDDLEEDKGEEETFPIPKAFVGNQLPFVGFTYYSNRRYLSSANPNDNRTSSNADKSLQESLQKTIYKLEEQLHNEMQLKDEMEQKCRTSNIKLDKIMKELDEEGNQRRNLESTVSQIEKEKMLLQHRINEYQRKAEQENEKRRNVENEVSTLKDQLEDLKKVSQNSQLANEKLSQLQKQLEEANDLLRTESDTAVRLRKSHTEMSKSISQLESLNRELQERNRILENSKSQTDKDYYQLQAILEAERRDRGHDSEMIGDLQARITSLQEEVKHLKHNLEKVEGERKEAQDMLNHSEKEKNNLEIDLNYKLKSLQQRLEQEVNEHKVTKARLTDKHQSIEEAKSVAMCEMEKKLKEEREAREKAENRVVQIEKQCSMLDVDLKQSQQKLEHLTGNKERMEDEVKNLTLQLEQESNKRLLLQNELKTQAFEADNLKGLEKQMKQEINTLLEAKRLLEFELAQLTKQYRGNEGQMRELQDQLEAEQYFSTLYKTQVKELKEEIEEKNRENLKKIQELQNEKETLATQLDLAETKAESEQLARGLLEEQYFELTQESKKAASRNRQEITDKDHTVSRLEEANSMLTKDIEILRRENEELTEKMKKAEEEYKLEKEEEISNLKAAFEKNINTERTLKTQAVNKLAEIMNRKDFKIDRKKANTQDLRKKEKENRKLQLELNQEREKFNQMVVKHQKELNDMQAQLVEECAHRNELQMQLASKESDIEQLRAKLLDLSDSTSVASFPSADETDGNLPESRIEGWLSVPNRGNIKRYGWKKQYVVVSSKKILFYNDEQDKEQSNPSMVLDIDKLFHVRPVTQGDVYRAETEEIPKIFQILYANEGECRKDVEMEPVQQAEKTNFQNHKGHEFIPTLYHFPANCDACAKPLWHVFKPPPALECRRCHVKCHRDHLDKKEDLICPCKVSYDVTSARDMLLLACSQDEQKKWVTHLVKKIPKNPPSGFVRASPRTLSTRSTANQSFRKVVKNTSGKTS
Aurora kinase B, sequence (Q96GD4 whole entry): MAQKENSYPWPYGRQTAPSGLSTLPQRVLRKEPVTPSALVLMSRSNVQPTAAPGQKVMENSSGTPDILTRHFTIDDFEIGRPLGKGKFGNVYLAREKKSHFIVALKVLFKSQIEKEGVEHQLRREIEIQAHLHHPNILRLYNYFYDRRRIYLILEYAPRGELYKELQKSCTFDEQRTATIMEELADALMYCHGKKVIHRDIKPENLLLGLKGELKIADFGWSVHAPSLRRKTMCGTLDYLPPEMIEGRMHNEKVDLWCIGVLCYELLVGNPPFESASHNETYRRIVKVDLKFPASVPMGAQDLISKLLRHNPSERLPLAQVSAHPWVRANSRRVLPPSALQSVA

Row | SMILES | IC50 [1] [µM] | IC50 (Aurora kinase B) [µM] | IC50 (Aurora kinase A) [µM] | IC50 (TGF-beta receptor type-1) [µM] | IC50 [2] [µM] | IC50 [3] [µM] | IC50 [4] [µM] | IC50 (K562) [µM] | IC50 (OCI-AML2) [µM] | IC50 [5] [µM] | IC50 (HEL) [µM] | IC50 [6] [µM]
1 | CNc1nc(-c2ccc3c(N)n[nH]c3c2)cc(N2C[C@@H](C(=O)Nc3ccccc3)CC[C@H]2C)n1 | 0.165 | 2 | > 10 | > 10 | 3.16 | 0.655 | 0.00158 | 8 | 0.58 | 0.65 | 12 | 0.46
2 | C[C@@H]1C[C@@H](N(C)C(=O)OC(C)(C)C)CN(c2cc(-c3ccc4c(N)n[nH]c4c3)nc(N)n2)C1 | 0.009 | 0.251 | 0.126 | > 10 | > 10 | 0.019 | 0.000794 | 17 | 0.38 | 0.24 | 18 | 0.19
3 | C[C@@H]1C[C@@H](NC(=O)OC(C)(C)C)CN(c2cc(-c3ccc4c(N)[nH]nc4c3)nc(N)n2)C1 |  | 1.58 | 0.398 | > 10 | > 10 |  |  | 24 | 0.69 | 0.4 | 18 | 0.82
4 | C[C@@H]1C[C@@H](N(C)C(=O)CC(C)(C)C)CN(c2cc(-c3ccc4c(N)n[nH]c4c3)nc(N)n2)C1 | 0.022 | 0.2 | 0.0631 | > 10 | > 10 | 0.116 | 0.000631 |  |  |  |  | 
5 | CC[C@@H]1CO[C@H](C(=O)NC2CCCCC2)CN1c1cc(-c2ccc3c(N)n[nH]c3c2)nc(NC)n1 | 0.085 | 1.58 | > 10 | > 10 | > 10 | 0.102 | 0.00631 | > 30 | 0.89 | 0.76 | 16 | 0.46

More lines, main results first:

Row | IC50 [1] [µM] | IC50 (Aurora kinase B) [µM] | IC50 (Aurora kinase A) [µM] | IC50 (TGF-beta receptor type-1) [µM] | IC50 [2] [µM] | IC50 [3] [µM] | IC50 [4] [µM] | IC50 (K562) [µM] | IC50 (OCI-AML2) [µM] | SMILES | IC50 [5] [µM] | IC50 (HEL) [µM] | IC50 [6] [µM]
6 | 0.472 | 1 | 5.01 | > 10 | 0.631 | 0.316 | 0.00794 |  |  | C[C@@H]1CC[C@H](C(=O)NC2CCCCC2)CN1c1cc(-c2ccc3c(N)n[nH]c3c2)nc(N)n1 |  |  | 
7 | 0.024 | 5.01 | > 10 | > 10 | > 10 | 0.03 | 0.00316 | > 30 | 0.46 | CNc1nc(-c2ccc3c(N)n[nH]c3c2)cc(N2C[C@@H](C(=O)NC3CCCCC3)OC[C@H]2C)n1 | 0.69 | 19 | 0.39
8 | 0.057 | 1.58 | 7.94 | > 10 | 3.16 | 0.088 | 0.00316 |  |  | CC[C@@H]1CO[C@H](C(=O)Nc2ccccc2)CN1c1cc(-c2ccc3c(N)n[nH]c3c2)nc(NC)n1 |  |  | 
